The source made the active and inactive calls. The rule behind the calls is not given here.
Test system: rodent carcinogenicity bioassays, tumor incidence
Assay: CCRIS carcinogenicity studies
Outline: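 NCI-built, expert-reviewed records of carcinogenicity and related test outcomes (mutagenicity, tumor promotion/inhibition) compiled from published and report sources, historical span 1985-2011, not updated.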

## Cn1c(=O)c2c(ncn2C)n(C)c1=O (tested in a mixture with another compound)
Species: MOUSE, Strain/Sex: B6C3F1/FEMALE, Route: ORAL, Dose: 0, 0.7, 1.4% OF DIET FOR 78 WK (STUDY DURATION: 94 WK), Dose: 0, 0.7, 1.4% OF DIET FOR 78 WK (STUDY DURATION: 94 WK)
  carcinogen call: inactive; negative
Species: MOUSE, Strain/Sex: B6C3F1/MALE, Route: ORAL, Dose: 0, 0.7, 1.4% OF DIET FOR 78 WK (STUDY DURATION: 94 WK), Dose: 0, 0.7, 1.4% OF DIET FOR 78 WK (STUDY DURATION: 94 WK)
  carcinogen call: inactive; negative
Species: RAT, Strain/Sex: F344/FEMALE, Route: ORAL, Dose: 0, 0.7, 1.4% OF DIET FOR 78 WK (STUDY DURATION: 113 WK), Dose: 0, 0.7, 1.4% OF DIET FOR 78 WK (STUDY DURATION: 113 WK), Tumor Site: Type of Lesion: BLADDER: TRANSITIONAL CELL CARCINOMA, KIDNEY: TUBULAR CELL ADENOCARCINOMA, TRANSITIONAL CELL PAPILLOMA
  carcinogen call: equivocal
Species: RAT, Strain/Sex: F344/MALE, Route: ORAL, Dose: 0, 0.7, 1.4% OF DIET FOR 78 WK (STUDY DURATION: 113 WK), Dose: 0, 0.7, 1.4% OF DIET FOR 78 WK (STUDY DURATION: 113 WK)
  carcinogen call: inactive; negative

## O=[N+]([O-])c1ccc2c3ccccc3c3cccc4ccc1c2c43
Species: MOUSE, Strain/Sex: B6C3F1/MALE, Route: INTRAPERITONEAL, Dose: 0, 400 NMOL IN 35 µL DMSO ON DAYS 1 (1/7 TOTAL DOSE), 8 (2/7 TOTAL DOSE), AND 15 (4/7 TOTAL DOSE) AFTER BIRTH (STUDY DUR
  carcinogen call: inactive; negative

## COc1ccc(O)cc1
Species: RAT, Strain/Sex: F344/FEMALE, Route: ORAL, Dose: 0, 2% IN DIET FOR 104 WK (STUDY DURATION: 104 WK), Tumor Site: Type of Lesion: FORESTOMACH: PAPILLOMA, SQUAMOUS CELL CARCINOMA
  carcinogen call: active; positive
Species: RAT, Strain/Sex: F344/MALE, Route: ORAL, Dose: 0, 0.4% IN DIET FOR DURATION OF STUDY (STUDY DURATION: 104 WK)
  carcinogen call: inactive; negative
Species: RAT, Strain/Sex: F344/MALE, Route: ORAL, Dose: 0, 2% IN DIET FOR 104 WK (STUDY DURATION: 104 WK), Tumor Site: Type of Lesion: FORESTOMACH: PAPILLOMA, SQUAMOUS CELL CARCINOMA
  carcinogen call: active; positive

## Cc1c([N+](=O)[O-])c(C)c([N+](=O)[O-])c(C(C)(C)C)c1[N+](=O)[O-]
Species: MOUSE, Strain/Sex: B6C3F1/FEMALE, Route: ORAL, Dose: 0, 0.075, 0.15% IN DIET FOR 80 WK (STUDY DURATION: 80 WK), Dose: 0, 0.075, 0.15% IN DIET FOR 80 WK (STUDY DURATION: 80 WK), Tumor Site: Type of Lesion: LIVER: ADENOMA
  carcinogen call: active; positive
Species: MOUSE, Strain/Sex: B6C3F1/MALE, Route: ORAL, Dose: 0, 0.075, 0.15% IN DIET FOR 80 WK (STUDY DURATION: 80 WK), Dose: 0, 0.075, 0.15% IN DIET FOR 80 WK (STUDY DURATION: 80 WK), Tumor Site: Type of Lesion: LIVER: ADENOMA, CARCINOMA, HARDERIAN GLAND: ADENOMA
  carcinogen call: active; positive

## Cc1ccc([N+]#N)cc1
Species: MOUSE, Strain/Sex: SWISS/FEMALE, Route: SUBCUTANEOUS, Dose: 0, 50 UG/G 1/WK FOR 16 OR 19 WK (STUDY DURATION: 140 WK), Tumor Site: Type of Lesion: SUBCUTANEOUS TISSUE: TUMOR, SKIN: TUMOR
  carcinogen call: active; positive
Species: MOUSE, Strain/Sex: SWISS/MALE, Route: SUBCUTANEOUS, Dose: 0, 50 UG/G 1/WK FOR 16 OR 19 WK (STUDY DURATION: 140 WK), Tumor Site: Type of Lesion: SUBCUTANEOUS TISSUE: TUMOR
  carcinogen call: active; positive

## NC(=O)NC1NC(=O)NC1=O (configuration not stated)
Species: RAT, Strain/Sex: F344/FEMALE, Route: ORAL, Dose: 0, 2000 PPM IN DIET FOR 106 WK (STUDY DURATION: 130 WK)
  carcinogen call: inactive; negative
Species: RAT, Strain/Sex: F344/MALE, Route: ORAL, Dose: 0, 2000 PPM IN DIET FOR 106 WK (STUDY DURATION: 130 WK)
  carcinogen call: inactive; negative

## O=C(c1ccccc1)C(O)c1ccccc1 (configuration not stated)
Species: MOUSE, Strain/Sex: B6C3F1/FEMALE, Route: ORAL, Dose: 0, 2500, 5000 PPM IN DIET, Dose: 0, 2500, 5000 PPM IN DIET
  carcinogen call: inactive; negative
Species: MOUSE, Strain/Sex: B6C3F1/MALE, Route: ORAL, Dose: 0, 2500, 5000 PPM IN DIET, Dose: 0, 2500, 5000 PPM IN DIET
  carcinogen call: inactive; negative
Species: RAT, Strain/Sex: F344/FEMALE, Route: ORAL, Dose: 0, 250, 500 PPM IN DIET, Dose: 0, 250, 500 PPM IN DIET
  carcinogen call: inactive; negative
Species: RAT, Strain/Sex: F344/MALE, Route: ORAL, Dose: 0, 125, 250 PPM IN DIET, Dose: 0, 125, 250 PPM IN DIET
  carcinogen call: inactive; negative

## O=[N+]([O-])c1ccccc1
Species: MOUSE, Strain/Sex: B6C3F1/FEMALE, Route: INHALATION, Dose: 0, 5, 25, 50 PPM 6 HR/D 5 D/WK FOR 2 YR (STUDY DURATION: 2 YR), Dose: 0, 5, 25, 50 PPM 6 HR/D 5 D/WK FOR 2 YR (STUDY DURATION: 2 YR), Tumor Site: Type of Lesion: MAMMARY GLAND: ADENOCARCINOMA
  carcinogen call: active; positive
Species: MOUSE, Strain/Sex: B6C3F1/MALE, Route: INHALATION, Dose: 0, 5, 25, 50 PPM 6 HR/D 5 D/WK FOR 2 YR (STUDY DURATION: 2 YR), Dose: 0, 5, 25, 50 PPM 6 HR/D 5 D/WK FOR 2 YR (STUDY DURATION: 2 YR), Tumor Site: Type of Lesion: LUNG: ADENOMA, ADENOMA OR CARCINOMA, THYROID GLAND: FOLLICULAR CELL ADENOMA
  carcinogen call: active; positive
Species: RAT, Strain/Sex: F344/FEMALE, Route: INHALATION, Dose: 0, 1, 5, 25 PPM 6 HR/D 5 D/WK FOR 2 YR (STUDY DURATION: 2 YR), Dose: 0, 1, 5, 25 PPM 6 HR/D 5 D/WK FOR 2 YR (STUDY DURATION: 2 YR), Tumor Site: Type of Lesion: UTERUS: ENDOMETRIAL STROMAL POLYP
  carcinogen call: active; positive
Species: RAT, Strain/Sex: F344/MALE, Route: INHALATION, Dose: 0, 1, 5, 25 PPM 6 HR/D 5 D/WK FOR 2 YR (STUDY DURATION: 2 YR), Dose: 0, 1, 5, 25 PPM 6 HR/D 5 D/WK FOR 2 YR (STUDY DURATION: 2 YR), Tumor Site: Type of Lesion: LIVER: HEPATOCELLULAR ADENOMA, HEPATOCELLULAR ADENOMA OR CARCINOMA, KIDNEY: TUBULAR ADENOMA, TUBULAR ADENOMA OR CARCINOM
  carcinogen call: active; positive
Species: RAT, Strain/Sex: STRAIN-CD/MALE, Route: INHALATION, Dose: 0, 1, 5, 25 PPM 6 HR/D 5 D/WK FOR 2 YR (STUDY DURATION: 2 YR), Dose: 0, 1, 5, 25 PPM 6 HR/D 5 D/WK FOR 2 YR (STUDY DURATION: 2 YR), Tumor Site: Type of Lesion: LIVER: HEPATOCELLULAR ADENOMA, HEPATOCELLULAR ADENOMA OR CARCINOMA
  carcinogen call: active; positive

## CC1=CC(=C(c2ccc(N)cc2)c2ccc(N)cc2)C=CC1=N
Species: HUMAN, Route: ORAL, INHALATION, DERMAL, Tumor Site: Type of Lesion: URINARY BLADDER
  carcinogen call: active; positive
Species: RAT, Strain/Sex: SPRAGUE-DAWLEY/FEMALE, Route: GAVAGE, Dose: 0, 200 MG/KG BW 2/WK FOR 8 WK WITH A 1 WK REST AFTER 2 WK THEN STARTING AT 9 WK 100 MG/KG BW 2/WK FOR DURATION OF STUDY
  carcinogen call: inactive; negative
Species: RAT, Strain/Sex: SPRAGUE-DAWLEY/MALE, Route: GAVAGE, Dose: 0, 200 MG/KG BW 2/WK FOR 8 WK WITH A 1 WK REST AFTER 2 WK THEN STARTING AT 9 WK 100 MG/KG BW 2/WK FOR DURATION OF STUDY
  carcinogen call: inactive; negative

## COCCN(N=O)C(N)=O
Species: RAT, Strain/Sex: F344/FEMALE, Route: INTRAVESICULAR, Dose: 0, 3.2 MG 2/WK FOR 17 WK (STUDY DURATION: LIFETIME), Tumor Site: Type of Lesion: BLADDER: TUMOR
  carcinogen call: active; positive

## Cc1cc(Cl)ccc1OC(C)C(=O)O (configuration not stated)
Species: Mouse, Strain/Sex: B6C3F1/CrlBR/Female (50/Group), Route: Oral, Dose: 0, 25, 250 ppm of 92.7% mecoprop in diet for 18 mo, study duration 18 mo, Dose: 0, 25, 250 ppm of 92.7% mecoprop in diet for 18 mo, study duration 18 mo
  carcinogen call: inactive; negative
Species: Mouse, Strain/Sex: B6C3F1/CrlBR/Male (50/Group), Route: Oral, Dose: 0, 25, 250 ppm of 92.7% mecoprop in diet for 18 mo, study duration 18 mo, Dose: 0, 25, 250 ppm of 92.7% mecoprop in diet for 18 mo, study duration 18 mo, Tumor Site: Type of Lesion: Lung: carcinoma
  carcinogen call: active; positive
Species: Rat, Strain/Sex: Wistar/Female (65/Group), Route: Oral, Dose: 0, 20, 100, 400 ppm of 92.7% mecoprop in diet for 24 mo, study duration 24 mo, Dose: 0, 20, 100, 400 ppm of 92.7% mecoprop in diet for 24 mo, study duration 24 mo
  carcinogen call: inactive; negative
Species: Rat, Strain/Sex: Wistar/Male (65/Group), Route: Oral, Dose: 0, 20, 100, 400 ppm of 92.7% mecoprop in diet for 24 mo, study duration 24 mo, Dose: 0, 20, 100, 400 ppm of 92.7% mecoprop in diet for 24 mo, study duration 24 mo
  carcinogen call: inactive; negative

## COc1c(O)c2c(c3cc(C(=O)N4CCc5c4c(O)c(OC)c4[nH]c(C(=O)N6C[C@H]7C[C@@]78C6=CC(=O)c6[nH]cc(C)c68)cc54)[nH]c13)CCN2C(N)=O
Species: MOUSE, Strain/Sex: STRAIN-A/MALE,FEMALE, Route: INTRAVENOUS, Dose: 0, 2, 4, 8 UG/KG ONCE (STUDY DURATION: 24 WK), Dose: 0, 2, 4, 8 UG/KG ONCE (STUDY DURATION: 24 WK), Tumor Site: Type of Lesion: LUNG: ADENOMA
  carcinogen call: active; positive

From PubChem BioAssay AID1259411 (Chemical Carcinogenesis Research Information System (CCRIS), 2018)
